Like-named read-outs stand apart in the source and are kept apart here.

In data set [1] the target is T1, CYP2b1 (Rattus norvegicus, UniProt P00176).
T1 sequence (P00176 1-491): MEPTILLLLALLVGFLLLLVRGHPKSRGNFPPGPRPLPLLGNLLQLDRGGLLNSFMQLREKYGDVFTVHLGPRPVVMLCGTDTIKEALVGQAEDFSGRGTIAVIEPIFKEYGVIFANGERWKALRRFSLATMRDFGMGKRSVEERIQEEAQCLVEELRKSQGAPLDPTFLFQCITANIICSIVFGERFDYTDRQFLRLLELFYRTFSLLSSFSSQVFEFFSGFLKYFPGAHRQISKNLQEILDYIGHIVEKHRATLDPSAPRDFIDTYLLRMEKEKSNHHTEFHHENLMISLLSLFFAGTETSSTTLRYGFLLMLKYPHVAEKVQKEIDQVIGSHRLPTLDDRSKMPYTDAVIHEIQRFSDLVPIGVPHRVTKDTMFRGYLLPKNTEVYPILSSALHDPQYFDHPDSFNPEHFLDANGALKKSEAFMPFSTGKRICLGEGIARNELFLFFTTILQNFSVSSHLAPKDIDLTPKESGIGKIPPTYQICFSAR
Put plainly: RLM incubation: metabolic clearance rate of bupropion (CYP2b1). Conditions: RLM 0.5 mg/mL, 30 min 37°C, inhibitor added, blank control 7.92 ± 0.60, n = 3. Here is the method:
(§1) The effect of the Zhicaowu–Hezi combination on CYP450 enzymes in RLM was evaluated by assessing the metabolic clearance rates of theophylline, metoprolol, bupropion, mephenytoin (CYP2c13), chlorzoxazone, testosterone, and diclofenac.
(§2) On day 15, the rats were humanely euthanized, and liver tissues were excised for microsomal preparation. […] Livers from each group were repeatedly washed with ice-cold phosphate buffered saline (PBS). […] Subsequently, they were blotted dry with filter paper, weighed, and homogenized by adding 4 mL of ice-cold PBS per gram of liver tissue. The mixture was homogenized in an ice bath. The liver homogenate was subjected to centrifugation at 10,000 RPM for 20 min at 4°C. The resulting supernatant was then combined with an ice-cold 88-mmol/L CaCl2 solution at a 1:1 ratio, and the mixture was homogenized in an ice bath for 5 min. The resulting solution was then centrifuged at 25,000 × g for 30 min at 4°C. The supernatant was discarded and the precipitate was repeatedly resuspended in PBS–20% glycerol buffer. The precipitate was then stored in a separate bottle at −80°C for backup. The protein concentration of the prepared RLM was determined using a bicinchoninic acid protein assay kit.
(§3) Preincubation was conducted for 5 min in a water bath at 37°C, after which NADPH (1 mmol/L) was added, and incubation continued for 30 min at 37°C. Once the incubation period elapsed, the reaction was terminated by the addition of an ice-cold IS-containing acetonitrile solution. The samples were vortexed for 2 min and centrifuged at 15,000 RPM for 10 min. The resulting supernatant was filtered through a 0.22-μm organic microporous membrane, and 20 μL of the filtered solution was injected into the HPLC assay. To prevent the organic solvents from inducing or inhibiting the enzyme, the volume fraction of organic solvents in the entire incubation system was maintained at 1%. […] The inhibitor group was added with corresponding inhibitor, while all other procedures remained identical.

Data set [2] has as its target T2, CYP2c13 (Rattus norvegicus, UniProt P20814).
T2 sequence (P20814 1-490): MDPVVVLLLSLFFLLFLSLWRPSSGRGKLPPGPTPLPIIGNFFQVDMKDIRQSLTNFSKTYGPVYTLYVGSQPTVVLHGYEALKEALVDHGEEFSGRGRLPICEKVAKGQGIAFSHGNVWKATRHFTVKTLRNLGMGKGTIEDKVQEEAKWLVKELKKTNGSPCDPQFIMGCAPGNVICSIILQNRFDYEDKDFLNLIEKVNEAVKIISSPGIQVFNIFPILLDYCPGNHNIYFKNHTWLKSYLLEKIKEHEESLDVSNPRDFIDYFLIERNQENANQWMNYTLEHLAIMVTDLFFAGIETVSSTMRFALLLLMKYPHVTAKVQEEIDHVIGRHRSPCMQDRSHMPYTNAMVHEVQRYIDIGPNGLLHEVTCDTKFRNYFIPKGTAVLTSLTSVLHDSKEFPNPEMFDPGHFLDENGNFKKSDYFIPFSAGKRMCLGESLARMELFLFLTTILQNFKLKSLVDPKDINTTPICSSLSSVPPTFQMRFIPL
Description: RLM incubation: metabolic clearance rate of mephenytoin (CYP2c13). The conditions noted are these: RLM 0.5 mg/mL, 30 min 37°C, inhibitor added, blank control 15.97 ± 0.68, n = 3. Here is the method:
as §1, §2, §3

In data set [3] the target is T3, CYP2d2 (Rattus norvegicus, UniProt P10634).
T3 sequence (P10634 1-500): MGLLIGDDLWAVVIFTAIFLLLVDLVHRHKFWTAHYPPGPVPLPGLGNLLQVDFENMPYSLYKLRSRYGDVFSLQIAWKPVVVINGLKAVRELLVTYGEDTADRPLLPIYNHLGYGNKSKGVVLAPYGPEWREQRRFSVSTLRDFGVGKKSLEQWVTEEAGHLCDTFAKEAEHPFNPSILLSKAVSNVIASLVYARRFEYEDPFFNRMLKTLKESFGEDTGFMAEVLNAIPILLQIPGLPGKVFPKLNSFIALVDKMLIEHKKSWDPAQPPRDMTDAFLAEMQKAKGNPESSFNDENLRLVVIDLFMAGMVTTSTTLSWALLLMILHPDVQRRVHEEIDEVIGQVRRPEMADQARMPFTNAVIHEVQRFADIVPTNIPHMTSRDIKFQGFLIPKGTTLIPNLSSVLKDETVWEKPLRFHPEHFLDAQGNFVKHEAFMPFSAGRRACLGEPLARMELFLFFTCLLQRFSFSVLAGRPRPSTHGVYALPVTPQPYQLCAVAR
Here is the method:
as §1, §2, §3

In data set [4] the target is T4, CYP1a2 (Rattus norvegicus, UniProt P04799).
T4 sequence (P04799 1-513): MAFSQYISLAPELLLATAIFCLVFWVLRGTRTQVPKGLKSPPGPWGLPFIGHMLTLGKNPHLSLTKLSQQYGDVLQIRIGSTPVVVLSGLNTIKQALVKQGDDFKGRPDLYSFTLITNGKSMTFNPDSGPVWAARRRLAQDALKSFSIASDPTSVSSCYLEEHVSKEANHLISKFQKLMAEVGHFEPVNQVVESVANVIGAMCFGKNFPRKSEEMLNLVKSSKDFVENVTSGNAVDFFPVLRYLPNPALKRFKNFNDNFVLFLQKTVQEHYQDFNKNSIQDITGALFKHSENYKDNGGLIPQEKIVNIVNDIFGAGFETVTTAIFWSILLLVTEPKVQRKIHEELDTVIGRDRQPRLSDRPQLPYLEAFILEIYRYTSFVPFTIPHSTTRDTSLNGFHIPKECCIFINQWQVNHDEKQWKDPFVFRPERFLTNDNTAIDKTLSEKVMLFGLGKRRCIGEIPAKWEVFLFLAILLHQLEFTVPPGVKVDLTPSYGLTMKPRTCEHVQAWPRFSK
Conditions: microsomes. Here is the method: as §1, §2, §3

The target in data set [5] is T5, CYP3a1 (Rattus norvegicus, UniProt P04800).
T5 sequence (P04800 1-504): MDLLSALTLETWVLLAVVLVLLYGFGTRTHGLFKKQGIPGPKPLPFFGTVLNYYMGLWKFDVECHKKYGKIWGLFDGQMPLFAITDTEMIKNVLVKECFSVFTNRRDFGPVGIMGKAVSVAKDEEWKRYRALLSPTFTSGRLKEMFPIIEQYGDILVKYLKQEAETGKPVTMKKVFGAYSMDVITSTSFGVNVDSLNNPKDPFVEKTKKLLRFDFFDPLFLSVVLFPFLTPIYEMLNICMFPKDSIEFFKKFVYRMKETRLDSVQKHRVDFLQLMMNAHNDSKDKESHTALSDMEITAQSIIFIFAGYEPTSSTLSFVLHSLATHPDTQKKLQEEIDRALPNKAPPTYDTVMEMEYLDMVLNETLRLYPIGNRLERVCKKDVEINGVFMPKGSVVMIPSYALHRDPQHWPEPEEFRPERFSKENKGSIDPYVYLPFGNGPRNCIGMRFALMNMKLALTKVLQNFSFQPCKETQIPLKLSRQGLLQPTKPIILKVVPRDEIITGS
Here is the method:
as §1, §2, §3

The target in data set [6] is CYP2e1 (Rattus norvegicus, UniProt P05182). Description: RLM incubation: metabolic clearance rate of chlorzoxazone (CYP2e1). Conditions: RLM 0.5 mg/mL, 30 min 37°C, inhibitor added, blank control 15.80 ± 0.34, n = 3. Here is the method: as §1, §2
Chain of CYP2e1 (P05182 whole entry): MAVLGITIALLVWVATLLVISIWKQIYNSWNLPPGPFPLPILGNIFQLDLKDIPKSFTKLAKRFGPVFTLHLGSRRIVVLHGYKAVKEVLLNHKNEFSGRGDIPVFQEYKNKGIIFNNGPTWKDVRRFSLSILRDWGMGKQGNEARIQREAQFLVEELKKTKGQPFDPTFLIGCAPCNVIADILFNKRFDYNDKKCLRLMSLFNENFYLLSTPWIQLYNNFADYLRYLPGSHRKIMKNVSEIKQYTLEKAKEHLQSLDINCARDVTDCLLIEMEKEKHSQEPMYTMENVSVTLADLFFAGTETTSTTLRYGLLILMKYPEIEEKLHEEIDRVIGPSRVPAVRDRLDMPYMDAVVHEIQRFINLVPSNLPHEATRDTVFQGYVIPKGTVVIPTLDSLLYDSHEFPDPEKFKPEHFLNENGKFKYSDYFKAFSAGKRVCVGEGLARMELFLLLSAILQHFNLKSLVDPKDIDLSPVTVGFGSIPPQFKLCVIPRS
Preincubation was conducted for 5 min in a water bath at 37°C, after which NADPH (1 mmol/L) was added, and incubation continued for 30 min at 37°C. […]

Data set [7] concerns the target T6, CYP2c11 (Rattus norvegicus, UniProt P08683).
T6 sequence (P08683 1-500): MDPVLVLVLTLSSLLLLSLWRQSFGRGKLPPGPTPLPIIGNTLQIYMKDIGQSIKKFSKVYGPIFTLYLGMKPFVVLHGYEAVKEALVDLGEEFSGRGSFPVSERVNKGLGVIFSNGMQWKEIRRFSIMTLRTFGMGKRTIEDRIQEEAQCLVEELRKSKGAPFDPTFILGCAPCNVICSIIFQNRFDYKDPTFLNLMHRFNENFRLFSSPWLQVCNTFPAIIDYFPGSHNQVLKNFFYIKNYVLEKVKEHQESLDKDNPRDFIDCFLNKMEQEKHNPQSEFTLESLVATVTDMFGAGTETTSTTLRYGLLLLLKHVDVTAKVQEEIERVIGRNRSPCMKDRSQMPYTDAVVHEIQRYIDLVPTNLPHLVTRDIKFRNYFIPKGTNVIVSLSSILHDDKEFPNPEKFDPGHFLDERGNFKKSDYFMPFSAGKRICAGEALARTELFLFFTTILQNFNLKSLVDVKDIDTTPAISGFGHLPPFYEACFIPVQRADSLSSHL
Conditions: RLM 0.5 mg/mL, 30 min 37°C, inhibitor added, probe diclofenac; blank control 21.12 ± 3.80; n = 3. Here is the method: as §1, §2, §3

For data set [8] the following is noted: ref Jin et al., 2024, cited from earlier work.

Take `CC(=O)N1CCN(c2ccc(OCC3COC(Cn4ccnc4)(c4ccc(Cl)cc4Cl)O3)cc2)CC1` (stereo not shown) [Ketoconazole, ketoconazole]: the “CYP2b1(%) metabolic clearance rate of probe drug” value in data set [1] stood at 7.11 ± 0.17%. For the same compound, the “CYP2c13(%) metabolic clearance rate of probe drug” value in data set [2] is reported as 17.26 ± 1.08%. In data set [3], the “CYP2d2 (%) metabolic clearance rate of probe drug” value was found to be 12.73 ± 1.11%. The “CYP1a2 (%) metabolic clearance rate of probe drug” value in data set [4] was 36.04 ± 1.71%. Moreover, in data set [5], the “CYP3a1 (%) metabolic clearance rate of probe drug” value amounted to 5.45 ± 2.49 %.

On to `Nc1ccc(S(=O)(=O)Nc2ccnn2-c2ccccc2)cc1` [Sulfaphenazolum], for which the “CYP2b1(%) metabolic clearance rate of probe drug” value in data set [1] worked out at 7.74 ± 0.98%. Further, the “CYP2c13(%) metabolic clearance rate of probe drug” value in data set [2] was found to be 16.47 ± 1.34%. The “CYP2e1 (%) metabolic clearance rate of probe drug” value in data set [6] is 16.11 ± 0.18%. In addition, the “CYP2d2 (%) metabolic clearance rate of probe drug” value in data set [3] (RLM 0.5 mg/mL, 30 min 37°C, inhibitor added, probe metoprolol, blank control […] ± 2.12, n = 3) was determined as 13.50 ± 0.30%. Besides, in data set [5] (RLM 0.5 mg/mL, 30 min 37°C, inhibitor added, probe testosterone, blank control 25.04 ± 1.93, n = 3), the “CYP3a1 (%) metabolic clearance rate of probe drug” value is recorded as 25.69 ± 1.69%. Also, the “CYP2c11(%) metabolic clearance rate of probe drug” value in data set [7] turned out to be 6.16 ± 0.65 %.

On to `CC1(C)[C@@H](O[C@H]2O[C@H](C(=O)O)[C@@H](O)[C@H](O)[C@H]2O[C@@H]2O[C@H](C(=O)O)[C@@H](O)[C@H](O)[C@H]2O)CC[C@]2(C)[C@H]3C(=O)C=C4[C@@H]5C[C@@](C)(C(=O)O)CC[C@]5(C)CC[C@@]4(C)[C@]3(C)CC[C@@H]12` [glycyrrhizin], for which the “reduction of systemic exposure to aconitine” value in data set [8] (glycyrrhizin by intravenous injection) is on record as 33%; in data set [8] (glycyrrhizin by oral gavage) it was 27%.

The values are drawn from article PMC12301304 (Frontiers in Pharmacology, 2025).
